Measured values published in patent US8399682B2, “Substituted (pyrazolylcarbonyl)imidazolidinones and their use” (AiCuris GmbH & Co. KG, priority 2008, dated 2013).

Tests used:
[1] = biological target: T1, reverse transcriptase (Human immunodeficiency virus type 1 group M subtype B, UniProt P04585); assay: Biochemical Reverse Transcriptase Assay (Reverse Transcriptase Assay, colorimetric, Roche); details: read-out: IC50 (nM) RT Assay
T1 construct: negative control (mixture without reverse transcriptase); purchased Roche Diagnostics GmbH, Mannheim, Germany
Procedure: The “Reverse Transcriptase Assay, colorimetric” (Roche Diagnostics GmbH, Mannheim, Germany) is used in accordance with the manufacturer's information. The test substances are dissolved in DMSO and are used in the test diluted in 5-fold steps (final DMSO concentration 1%). The resulting values of the photometric evaluation (405/492 nm) are less than 0.1 for the negative control (mixture without reverse transcriptase) and are in the region of 1.5 for the positive control (mixture without test substance). The IC50 values of the test substances are determined as the concentration of the test substance dilution at which the measured optical density is 50% of the positive control.

[2] = system: HIV-1NL4-3 wt; assay: Light assay with wild-type HI reporter virus in MT4 7F2 cells; format: cell-based; details: Human immunodeficiency virus 1, 2% FCS
Procedure: (§1) For the mixture for a 96-well MTP, 3 million MT4 7F2 cells are pelleted, suspended in 1 ml of RPMI 1640 medium without phenol red (Invitrogen, Karlsruhe, Germany)/10% FCS/10% AIM-V (Invitrogen, Karlsruhe, Germany) and incubated together with a suitable amount of the corresponding HIV-1NL4-3 reporter virus at 37° C. for 2 hours (pellet infection). Unadsorbed viruses are subsequently washed out with PBS, and the infected cells are pelleted again and suspended in 8 ml of RPMI 1640 medium without phenol red/2% or 10% FCS/10% AIM-V. 80 μl thereof are pipetted into each well of a white 96-well MTP with 20 μl of test substance in suitable dilution. To avoid edge effects, the wells on the edge of the MTP are not used for substance dilutions. The second vertical row of the MTP contains only infected cells (virus control) and the eleventh vertical row only uninfected cells (cell control), in each case in RPMI 1640 medium without phenol red/2% or 10% FCS/10% AIM-V. The other wells of the MTP contain the compounds of the invention in various concentrations starting from the third vertical row, from which the test substances are diluted in 3-fold steps up to the tenth vertical row 3^7-fold. The test substances are dissolved in DMSO, whereby the final DMSO concentration in the test mixture eventually is 1%. The test mixtures are incubated at 37° C./5% CO2 for five days and, after the addition of 15 μl of Lu164 substrate (5 mg/ml coelenterazine dissolved in 30 μM glutathione/DMSO, 100 mM NaCl, 1M MES, 100 mM glutathione), evaluated by luminometry. The resulting values are in the region of 1 000 000 RLUs (relative light units) for the virus control and 300 to 400 RLUs for the cell control. The EC50 values of the test substances are determined as the concentration at which the virus replication measured in RLUs is 50% of the untreated infected cells.

[3] = system: HIV-1LAI; assay: H9 assay with wild-type HIV-1 (HIV-1LAI supernatant infection, AlamarBlue); format: cell-based; details: Human immunodeficiency virus 1, H9 cells, 10% FCS
Procedure: For the mixture for a 96-well MTP, 3 million PBLs are pelleted, suspended in 1 ml of RPMI 1640 medium/10% FCS and incubated together with a suitable amount of HIV-1LAI (NIH AIDS Research & Reference Reagent Program, Germantown, USA) at 37° C. for 2 hours (pellet infection). Unadsorbed viruses are subsequently washed out with PBS, and the infected cells are pelleted again and suspended in 18 ml of RPMI 1640 medium/10% FCS/interleukin-2 (40 U/ml). 180 μl thereof are pipetted into each well of a white 96-well MTP with 20 μl of test substance in suitable dilution. Alternatively, after preparation of the substance dilutions in the MTP, the HIV is pipetted in together with the cells and is not washed out again (supernatant infection). In order to avoid edge effects, the wells at the edge of the MTP are not used for substance dilutions. The second vertical row of the MTP contains only infected cells (virus control) and the eleventh vertical row only uninfected cells (cell control), in each case in RPMI 1640 medium/10% FCS/interleukin-2 (40 U/ml). The other wells of the MTP contain the compounds of the invention in various concentrations starting from the third vertical row, from which the test substances are diluted in 3-fold steps up to the tenth vertical row 3^7-fold. The test substances are dissolved in DMSO, whereby the final DMSO concentration in the test mixture eventually is 1%. The test mixtures are incubated at 37° C./5% CO2. After 5 and 7 days, 50 μl of cell-free supernatant are removed from each well to determine the amount of p24 present by means of a p24 ELISA (HIV-1 p24^CA Antigen Capture Assay Kit, NCI-Frederick Cancer Research and Development Center, Frederick, USA). From the resulting values of the photometric evaluation (450/620 nm) the EC50 values of the test substances are determined as the concentration at which the amount of p24 is 50% of the untreated infected cells.
Alternatively, H9 cells (ATCC, Wesel, Germany) are employed instead of PBLs for testing the test substances. H9 cells are incubated in RPMI 1640 medium with 2% or 10% FCS as a HIV-1LAI supernatant infection at 37° C./5% CO2, (20 μl of substance dilution and 80 μl of cells/virus per well) in accordance with the pattern described above for 5 days. Subsequently, 10 μl of AlamarBlue (Invitrogen, Karlsruhe, Germany) are added to each well, and the MTPs are incubated at 37° C. for 3 hours before the fluorimetric evaluation takes place (544/590 nm). The resulting values are about 40 000 for the untreated uninfected cells and about 7000 for the untreated infected cells. In the low concentration range, the EC50 values of the test substances are determined as the concentration at which the fluorescence is 50% of the untreated uninfected cells (in each case subtracting the values of the untreated infected cells). In addition, in the high concentration range, the CC50 values of the test substances are determined as the concentration at which the fluorescence is 50% of the untreated uninfected cells (in each case subtracting the values of the untreated infected cells).

[4] = system: HIV-1NL4-3 K103N-Y181C; assay: Light assay with inhibitor-resistant HI reporter virus in MT4 7F2 cells; format: cell-based; details: Human immunodeficiency virus 1, read-out: EC50 (nM) MT4 7F2 cells HIV-1NL4-3 K103N-Y181C 2% FCS
Procedure: as §1

Structure (SMILES): N#Cc1cccc(-n2nc(C(=O)N3CNC(=O)C3)cc2-c2ccc(F)c(Cl)c2)c1 [Example 52, 1-{[5-(3-Chloro-4-fluorophenyl)-1-(3-Cyanophenyl)-1H-pyrazol-3-yl]carbonyl}imidazolidin-4-one]
- IC50 [1]: 38 nM
- EC50 [2]: 0.1 nM
- EC50 [3]: 2 nM
- EC50 [4]: 17 nM

Structure (SMILES): O=C1CN(C(=O)c2cc(-c3cc(F)cc(Cl)c3)n(-c3ccc(F)c(Cl)c3)n2)CN1 [Example 1, 1-{[1-(3-Chloro-4-fluorophenyl)-5-(3-chloro-5-fluorophenyl)-1H-pyrazol-3-yl]carbonyl}imidazolidin-4-one]
- IC50 [1]: 38 nM
- EC50 [2]: 0.2 nM
- EC50 [3]: 2 nM
- EC50 [4]: 3 nM

Structure (SMILES): N#Cc1cccc(-c2cc(C(=O)N3CNC(=O)C3)nn2-c2ccc(F)c(Cl)c2)c1 [Example 25]
- IC50 [1]: 99 nM
- EC50 [2]: 0.6 nM
- EC50 [3]: 2 nM
- EC50 [4]: 30 nM

Structure (SMILES): N#Cc1cc(F)cc(-c2cc(C(=O)N3CNC(=O)C3)nn2-c2ccc(F)c(Cl)c2)c1 [Example 62, 3-{1-(3-Chloro-4-fluorophenyl)-3-[(4-oxoimidazolidin-1-yl)carbonyl]-1H-pyrazol-5-yl}-5-fluorobenzenecarbonitrile]
- IC50 [1]: 49 nM
- EC50 [2]: 2 nM
- EC50 [3]: 9 nM
- EC50 [4]: 63 nM

Structure (SMILES): O=C1CN(C(=O)c2cc(-c3cccc(Cl)c3)n(-c3cccc(Br)c3)n2)CN1 [Example 32, 1-{[1-(3-Bromophenyl)-5-(3-chlorophenyl)-1H-pyrazol-3-yl]carbonyl}imidazolidin-4-one]
- IC50 [1]: 65 nM
- EC50 [2]: 0.1 nM
- EC50 [3]: 0.7 nM
- EC50 [4]: 25 nM

Structure (SMILES): O=C1CN(C(=O)c2cc(-c3cccc(F)c3)n(-c3ccc(F)c(Cl)c3)n2)CN1 [Example 26, 1-{[1-(3-Chloro-4-fluorophenyl)-5-(3-fluorophenyl)-1H-pyrazol-3-yl]carbonyl}imidazolidin-4-one]
- IC50 [1]: 104 nM
- EC50 [2]: 2 nM
- EC50 [3]: 11 nM
- EC50 [4]: 65 nM

Structure (SMILES): O=C1CN(C(=O)c2cc(-c3cc(F)cc(Cl)c3)n(-c3cccc(Cl)c3)n2)CN1 [Example 2, 1-{[5-(3-Chloro-5-fluorophenyl)-1-(3-chlorophenyl)-1H-pyrazol-3-yl]carbonyl}imidazolidin-4-one]
- IC50 [1]: 34 nM
- EC50 [2]: 0.06 nM
- EC50 [3]: 0.2 nM
- EC50 [4]: 11 nM

Structure (SMILES): N#Cc1cc(F)cc(-c2cc(C(=O)N3CNC(=O)C3)nn2-c2cccc(Cl)c2)c1 [Example 61, 3-{1-(3-Chlorophenyl)-3-[(4-oxoimidazolidin-1-yl)carbonyl]-1H-pyrazol-5-yl}-5-fluorobenzenecarbonitrile]
- IC50 [1]: 35 nM
- EC50 [2]: 1 nM
- EC50 [3]: 3 nM
- EC50 [4]: 80 nM

Structure (SMILES): N#Cc1cc(F)cc(-c2cc(C(=O)N3CNC(=O)C3)nn2-c2cccc(C#N)c2)c1 [Example 64, 3-{1-(3-Cyanophenyl)-3-[(4-oxoimidazolidin-1-yl)carbonyl]-1H-pyrazol-5-yl}-5-fluorobenzenecarbonitrile]
- IC50 [1]: 25 nM
- EC50 [2]: 5 nM
- EC50 [3]: 100 nM
- EC50 [4]: 250 nM

Structure (SMILES): N#Cc1cc(-n2nc(C(=O)N3CNC(=O)C3)cc2-c2cccc(Cl)c2)ccc1F [Example 53, 1-{[5-(3-Chlorophenyl)-1-(3-Cyano-4-fluorophenyl)-1H-pyrazol-3-yl]carbonyl}imidazolidin-4-one]
- IC50 [1]: 46 nM
- EC50 [2]: 0.3 nM
- EC50 [3]: 1 nM
- EC50 [4]: 33 nM

Structure (SMILES): O=C1CN(C(=O)c2cc(-c3cc(F)cc(C(F)(F)F)c3)n(-c3cccc(Cl)c3)n2)CN1 [Example 30, 1-({1-(3-Chlorophenyl)-5-[3-fluoro-5-(trifluoromethyl)phenyl]-1H-pyrazol-3-yl}carbonyl)imidazolidin-4-one]
- IC50 [1]: 297 nM
- EC50 [2]: 3 nM
- EC50 [3]: 8 nM
- EC50 [4]: 16 nM

Structure (SMILES): N#Cc1cccc(-n2nc(C(=O)N3CNC(=O)C3)cc2-c2cccc(Cl)c2)c1 [Example 56, 3-{5-(3-Chlorophenyl)-3-[(4-oxoimidazolidin-1-yl)carbonyl]-1H-pyrazol-1-yl}benzenecarbonitrile]
- IC50 [1]: 14 nM
- EC50 [2]: 0.03 nM
- EC50 [3]: 0.1 nM
- EC50 [4]: 12 nM

Structure (SMILES): N#Cc1cc(-n2nc(C(=O)N3CNC(=O)C3)cc2-c2cc(F)cc(Cl)c2)ccc1F [Example 60, 5-{5-(3-Chloro-5-fluorophenyl)-3-[(4-oxoimidazolidin-1-yl)carbonyl]-1H-pyrazol-1-yl}-2-fluorobenzenecarbonitrile]
- IC50 [1]: 9 nM
- EC50 [2]: 0.1 nM
- EC50 [3]: 0.9 nM
- EC50 [4]: 4 nM

Structure (SMILES): COc1cccc(-c2cc(C(=O)N3CNC(=O)C3)nn2-c2ccc(F)c(Cl)c2)c1 [Example 38, 1-{[1-(3-Chloro-4-fluorophenyl)-5-(3-methoxyphenyl)-1H-pyrazol-3-yl]carbonyl}imidazolidin-4-one]
- IC50 [1]: 365 nM
- EC50 [2]: 9 nM
- EC50 [3]: 120 nM
- EC50 [4]: 80 nM

Structure (SMILES): COc1cc(F)cc(-c2cc(C(=O)N3CNC(=O)C3)nn2-c2cccc(Cl)c2)c1 [Example 21, 1-{[1-(3-Chlorophenyl)-5-(3-fluoro-5-methoxyphenyl)-1H-pyrazol-3-yl]carbonyl}imidazolidin-4-one]
- IC50 [1]: 59 nM
- EC50 [2]: 1 nM
- EC50 [3]: 3 nM
- EC50 [4]: 38 nM

Structure (SMILES): COc1cc(F)cc(-c2cc(C(=O)N3CNC(=O)C3)nn2-c2ccc(F)c(Cl)c2)c1 [Example 22, 1-{[1-(3-Chloro-4-fluorophenyl)-5-(3-fluoro-5-methoxyphenyl)-1H-pyrazol-3-yl]carbonyl}imidazolidin-4-one]
- IC50 [1]: 131 nM
- EC50 [2]: 0.3 nM
- EC50 [3]: 2 nM
- EC50 [4]: 10 nM

Structure (SMILES): N#Cc1cccc(-n2nc(C(=O)N3CNC(=O)C3)cc2-c2cc(F)cc(Cl)c2)c1 [Example 59]
- IC50 [1]: 8 nM
- EC50 [2]: 0.2 nM
- EC50 [3]: 1 nM
- EC50 [4]: 10 nM

Structure (SMILES): O=C1CN(C(=O)c2cc(-c3ccc(F)c(Cl)c3)n(-c3cccc(Br)c3)n2)CN1 [Example 33, 1-{[1-(3-Bromophenyl)-5-(3-chloro-4-fluorophenyl)-1H-pyrazol-3-yl]carbonyl}imidazolidin-4-one]
- IC50 [1]: 8 nM
- EC50 [2]: 0.07 nM
- EC50 [3]: 0.5 nM
- EC50 [4]: 3 nM
